The values below come from ChEMBL document CHEMBL1201862, “PubChem BioAssay data set” (2004).

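Five compound concentrations were applied to cells in 96-well plates for 48 hours; endpoints were derived by simple linear interpolation of the resulting dose-response curve. Here, GI50 denotes the concentration required for 50% inhibition of growth.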 Activity calls are given as the source filed them. Rule as the data show it: active = GI50 up to about 1.1 µM and inactive = higher.

Among the test systems are M14; EKVX; NCI-H23; KM12; HOP-62; LOX IMVI; SN12C; SK-MEL-2; RXF 393; HCT-116; RPMI-8226; NCI-H460; Malme-3M; ACHN; NCI/ADR-RES; COLO 205; NCI-H226; SF-295; A549; MDA-MB-435.
What all share (test): inhibition of tumour cell growth, NCI panel, 48 h

As for `Clc1ccccc1/C=C/c1cscn1`, the GI50 in the assay on M14, in the assay with EKVX, with NCI-H23, with KM12, with HOP-62 and with LOX IMVI was > 100 µM (inactive) throughout. In addition, the GI50 with SN12C, with SK-MEL-2, in the assay with RXF 393, with HCT-116, with RPMI-8226 and in the assay with NCI-H460 was > 100 µM (inactive) throughout. In addition, the GI50 in the assay with Malme-3M and with ACHN was > 100 µM (inactive) each time.

Turning to `COc1cc(/N=N\c2ccc(OC)c(S(=O)(=O)O)c2)c(C)cc1/N=N\c1ccc(/C=C/c2ccc(/N=[N+](/[O-])c3ccc(/C=C/c4ccc(/N=N/c5cc(C)c(/N=N\c6ccc(OC)c(S(=O)(=O)O)c6)cc5OC)cc4S(=O)(=O)O)c(S(=O)(=O)O)c3)cc2S(=O)(=O)O)c(S(=O)(=O)O)c1`, the GI50 in the assay on NCI/ADR-RES, in the assay on EKVX, in the assay with COLO 205, in the assay on NCI-H23, in the assay on KM12 and with HOP-62 was > 100 µM (inactive) in each case. Further, the GI50 with LOX IMVI is > 100 µM (inactive); with SN12C, > 100 µM (inactive); with SK-MEL-2 it was > 100 µM (inactive); in the assay on RXF 393 it was > 100 µM (inactive); with HCT-116, > 100 µM (inactive); with NCI-H226, > 52.1 µM (inactive). Besides, the GI50 with RPMI-8226, in the assay on SF-295, in the assay with A549, in the assay on NCI-H460 and in the assay on Malme-3M was > 100 µM (inactive) in each case.

Regarding `CC1=CC[C@H](C)C(C)(C)C1/C=C/C(C)=C/CC[C@@]1(CO)[C@H](CCCO)/C(=C(/C)C=O)CC[C@]1(C)O` (some centres not stated), the GI50 in the assay with M14 is 2.07 µM (inactive); with EKVX, 2.2 µM (inactive); in the assay with COLO 205 it was 1.05 µM (active); with NCI-H23, 10.2 µM (inactive); in the assay with KM12, 1.61 µM (inactive); with LOX IMVI it was 0.824 µM (active). The GI50 with SN12C is 5.68 µM (inactive); in the assay on SK-MEL-2 it was 15.8 µM (inactive); with RXF 393 it was 14.6 µM (inactive); with NCI-H226 it was 1.9 µM (inactive); with SF-295, 1.23 µM (inactive); in the assay with A549 it was 0.877 µM (active). Further, the GI50 is 1.11 µM (active) in the assay with NCI-H460, 3.27 µM (inactive) in the assay on Malme-3M and 3.68 µM (inactive) with ACHN.

In the case of `Brc1ccccc1-c1ncc(-c2ccccc2)o1`, the GI50 in the assay with M14 was 29.6 µM (inactive); in the assay with NCI/ADR-RES, 30.8 µM (inactive); in the assay with EKVX, 6.7 µM (inactive); in the assay on COLO 205, 20.1 µM (inactive); in the assay with NCI-H23, 29.4 µM (inactive); in the assay with KM12 it was 17.4 µM (inactive). Further, the GI50 was 27.8 µM (inactive) with HOP-62; 17.1 µM (inactive) in the assay on LOX IMVI; 55.2 µM (inactive) in the assay on SN12C; 27.3 µM (inactive) in the assay with SK-MEL-2; 21.7 µM (inactive) with RXF 393; 34.8 µM (inactive) in the assay with HCT-116. For the same molecule, the GI50 in the assay on MDA-MB-435 was 23.6 µM (inactive); in the assay with RPMI-8226, 15 µM (inactive); in the assay with SF-295 it was 33.9 µM (inactive); with A549, 44.7 µM (inactive); in the assay on NCI-H460 it was 29.9 µM (inactive); with Malme-3M, 26.7 µM (inactive). For the same molecule, in the assay on ACHN, the GI50 is 33.6 µM (inactive).

Regarding `O=C1[C@@H]2C(c3c(Cl)cccc3Cl)=NO[C@@H]2C(=O)N1c1ccc(Cc2ccc(N3C(=O)[C@H]4C(c5c(Cl)cccc5Cl)=NO[C@H]4C3=O)cc2)cc1`, the GI50 in the assay on M14, in the assay on EKVX, in the assay on COLO 205, in the assay with NCI-H23, in the assay with KM12 and in the assay with HOP-62 was > 100 µM (inactive) throughout. In addition, the GI50 in the assay with LOX IMVI, with SN12C, in the assay with SK-MEL-2, in the assay with RXF 393, in the assay with NCI-H226 and with RPMI-8226 was > 100 µM (inactive) in each case. For the same molecule, the GI50 in the assay on SF-295, in the assay on A549, with NCI-H460, with Malme-3M and in the assay on ACHN was > 100 µM (inactive) each time.

Consider `O=C(O)C1CCC(=O)N1C(=O)COc1cc(Cl)c(Cl)cc1Cl` (configuration not stated), for which the GI50 in the assay on M14, in the assay on EKVX, in the assay with COLO 205, with NCI-H23, in the assay on KM12 and with LOX IMVI was > 100 µM (inactive) in each case. Also, the GI50 in the assay on SN12C, in the assay with HCT-116, in the assay on NCI-H226, in the assay on SF-295, in the assay with A549 and in the assay with NCI-H460 was > 100 µM (inactive) in each case. In the assay on ACHN, the GI50 is > 100 µM (inactive).

As for `N#Cc1ccccc1NC(=O)C(=O)C(C(=O)c1ccccc1F)C1OC(=O)c2ccccc21` (configuration not stated), the GI50 with M14 was 82 µM (inactive); in the assay with EKVX, 45.5 µM (inactive); in the assay on COLO 205 it was 37.7 µM (inactive); in the assay on NCI-H23 it was 40.4 µM (inactive); in the assay with KM12, 41.2 µM (inactive); with HOP-62, 66.8 µM (inactive). In addition, the GI50 is 21.9 µM (inactive) in the assay on LOX IMVI; 28.2 µM (inactive) in the assay on SN12C; 24.1 µM (inactive) in the assay with SK-MEL-2; 44.3 µM (inactive) with RXF 393; 34.2 µM (inactive) in the assay with HCT-116; 18.4 µM (inactive) in the assay on NCI-H226. Moreover, the GI50 in the assay on RPMI-8226 was 25 µM (inactive); with SF-295 it was 55.1 µM (inactive); in the assay on A549, 70.8 µM (inactive); with NCI-H460, 41.1 µM (inactive); in the assay on ACHN, 80.7 µM (inactive).

For the molecule `CCOC(=O)C(C(=O)OCC)c1cc(-c2cc3ccccc3o2)oc(=O)c1C#N`, the GI50 with M14 is 20.8 µM (inactive); in the assay with EKVX, 39.7 µM (inactive); with COLO 205, 20.5 µM (inactive); in the assay on NCI-H23, 16 µM (inactive); in the assay with KM12 it was 35.6 µM (inactive); in the assay on LOX IMVI, 17.9 µM (inactive). Besides, the GI50 with SN12C is 24.4 µM (inactive); in the assay with SK-MEL-2, 19.8 µM (inactive); in the assay with RXF 393 it was 19.6 µM (inactive); with HCT-116, 21.3 µM (inactive); in the assay on NCI-H226, 21.1 µM (inactive); in the assay on RPMI-8226, 35.6 µM (inactive). For the same molecule, the GI50 in the assay on SF-295 was 22.2 µM (inactive); in the assay with A549, 33.4 µM (inactive); with NCI-H460 it was 30.2 µM (inactive); in the assay with Malme-3M it was 22.4 µM (inactive); in the assay on ACHN it was 34.6 µM (inactive).

For `CC(C)=CCC(OC(=O)C=C(C)C)c1cc(O)c2c(c1O)C(=O)C=CC2=O` (configuration not stated), the GI50 in the assay on NCI/ADR-RES is 0.406 µM (active); with EKVX, 0.933 µM (active); in the assay on COLO 205 it was 0.382 µM (active); in the assay with KM12, 2.42 µM (inactive); in the assay on HOP-62, 12.8 µM (inactive); in the assay on LOX IMVI, 0.261 µM (active). In addition, the GI50 in the assay on SN12C is 1.04 µM (active); in the assay with SK-MEL-2, 2.01 µM (inactive); in the assay with RXF 393 it was 0.218 µM (active); in the assay with HCT-116, 0.279 µM (active); with NCI-H226, 2.97 µM (inactive); with RPMI-8226, 0.171 µM (active). The GI50 in the assay with SF-295 is 2.95 µM (inactive); in the assay with A549, 5.04 µM (inactive); with NCI-H460, 2.75 µM (inactive); in the assay on Malme-3M it was 0.428 µM (active).

As to `Cc1oc2c(c1C)S(=O)(=O)C(C#N)=CN2`, the GI50 in the assay on M14, with NCI/ADR-RES, in the assay with EKVX, in the assay on COLO 205, in the assay with NCI-H23 and in the assay with KM12 was > 100 µM (inactive) throughout. Further, the GI50 in the assay on HOP-62, in the assay on LOX IMVI, in the assay with SN12C, in the assay on SK-MEL-2, in the assay on HCT-116 and with NCI-H226 was > 100 µM (inactive) in each case. Also, the GI50 with MDA-MB-435 is > 100 µM (inactive); in the assay with RPMI-8226 it was > 100 µM (inactive); with SF-295 it was > 100 µM (inactive); with A549, > 100 µM (inactive); in the assay with NCI-H460 it was > 100 µM (inactive); in the assay with Malme-3M, 42.2 µM (inactive). Further, in the assay with ACHN, the GI50 is > 100 µM (inactive).

As to `CC(C)CC(N)C(=O)OCN1C(=O)C2C3C=CC(C2C1=O)C1C2C(=O)N(COC(=O)C(N)CC(C)C)C(=O)C2C31` (configuration not stated), the GI50 with M14 was > 100 µM (inactive); in the assay with EKVX, > 100 µM (inactive); in the assay on COLO 205 it was > 92.3 µM (inactive); in the assay with NCI-H23 it was > 100 µM (inactive); with KM12, > 100 µM (inactive); in the assay on HOP-62 it was > 100 µM (inactive). For the same molecule, the GI50 was > 41.5 µM (inactive) in the assay with LOX IMVI; > 100 µM (inactive) with SN12C; > 100 µM (inactive) in the assay with SK-MEL-2; > 100 µM (inactive) with RXF 393; > 43.8 µM (inactive) in the assay with HCT-116; > 100 µM (inactive) in the assay on NCI-H226. Further, the GI50 with RPMI-8226 was > 48.2 µM (inactive); in the assay on SF-295, > 100 µM (inactive); in the assay on A549, > 100 µM (inactive); in the assay with NCI-H460, > 59.7 µM (inactive); with Malme-3M, > 100 µM (inactive); with ACHN it was > 100 µM (inactive).
